For assay [1], the target named is T1, GMPPNP-bound KRAS G12C protein and cRAF RAS-binding domain (cRAF-RBD) (Homo sapiens, UniProt P01116, G12C).
T1 construct: made in house; host or cells: E. coli
The assay can be described thus: Inhibitory activity on interaction between KRAS G12C and cRAF (Alpha technology). Format: biochemical. The following applies: GMPPNP-bound KRAS G12C incubated with compound at 25° C. for 1 hour, then cRAF-RBD, Alpha signal; read-out: IC50. As for the experimental part:
Interaction between recombinant K-Ras4B G12C mutant protein (amino acids 1-169, SEQ ID NO:2) and cRAF RAS-binding domain (cRAF-RBD, amino acids 50-132, Jena Biosciences GmbH) was measured using Alpha technology (PerkinElmer Inc.).
Recombinant KRAS G12C protein with an N-terminal His-tag was expressed in E. coli and purified by affinity chromatography. To prepare GTP-bound form and GDP-bound form of KRAS G12C protein, 50 μM KRAS G12C protein was incubated with 1 mM GMPPNP (Guanosine-5′-[(β,γ)-imido]triphosphate, Tetralithium salt) (Jena Bioscience GmbH) and 1 mM GDP, respectively, in a loading buffer (20 mM Tris-HCl (pH 7.5), 50 mM NaCl, 1 mM DTT and 2.5 mM EDTA) for 1 hour on ice. After the incubation, MgCl2 was added to a final concentration of 10 mM, followed by incubation at room temperature for 30 minutes. The mixture was allowed to pass through a NAP-5 column to remove free nucleotides and purified, and the resultant nucleotide-bound KRAS G12C protein was used for compound evaluation.
For the measurement of the inhibitory activity of compounds on interaction between KRAS G12C and cRAF-RBD, GMPPNP-bound KRAS G12C protein was incubated with various concentrations of compound in a reaction buffer (20 mM Tris-HCl (pH 7.5), 100 mM NaCl, 1 mM MgCl2, 1 mM TCEP, 0.1% Tween 20) at 25° C. for 1 hour. After the incubation, recombinant cRAF-RBD and Alpha detection reagents were added and incubated at room temperature for 1.5 hours for binding. Interaction 5 of KRAS G12C and cRAF-RBD was monitored by measuring Alpha signal. Inhibition % was calculated using the signal from the reaction without test compound (DMSO control) as 0% inhibition and the signal from the reaction using GDP-bound KRAS G12C in place of GMPPNP-bound KRAS G12C as 100% inhibition. IC50 values were calculated from dose titration curve using curve fitting by XLfit software (IDBS).

Assay [2] deals with Gppcp-bound recombinant K-Ras4B G12C mutant protein (amino acids 1-169, C51S/C80L/C118S) (Homo sapiens, UniProt P01116, C118S/C51S/C80L/G12C). The assay can be described thus: KRASG12C binding assay (LC-MS compound binding rate). The conditions noted are these: test compound final concentration 0.5 μM, 25° C., 1 hour. As for the experimental part:
As test compounds for the KRASG12C binding assay, the compounds obtained in the “Preparation of Compounds” section were used. Sample solutions each containing a test compound were prepared in the form of a 10 mM DMSO solution.
Gppcp-bound recombinant K-Ras4B G12C mutant protein (amino acids 1-169, C51S/C80L/C118S, SEQ ID NO:1) was diluted with a buffer (1×TBS, 0.1 mM TCEP, 0.25 mM MgCl2, 50 μM Gppcp) to prepare a 50 nM protein solution. K-Ras4B is the major splicing variant of K-Ras. Amino acid sequence of residues 1 to 150 including the compounds' binding region of K-Ras4B is exactly same as that of K-Ras4A, the other splicing variant (Oncotarget. 2016 Jul. 19; 7(29): 46717-46733). A sample solution containing 10 mM test compound was diluted ten-fold with DMSO to make a 1 mM sample solution, and then diluted twenty-fold with DMSO to make a 50 μM sample solution. 1 μL of a 50 μM sample solution was added to 100 μL of a 50 nM protein solution to adjust the final concentration of a test compound to be 0.5 μM in the mixture. The mixtures were stored in an incubator at 25° C. for 1 hour, and 10 μL of a 1×TBS solution containing 2% formic acid was added to stop the reaction, followed by LC-MS measurement. LC-MS measurement was performed using Xevo G2-S Q-Tof manufactured by Waters, and reverse-phase chromatography was performed with a desalting column. A mass spectrum of positive ions was obtained by electrospray. For a mass spectrum, a spectrum of polyvalent ions was collectively converted to a molecular weight by using OpenLynx software by the MaxEnt technique, and a compound binding rate was calculated from the ratio of the signal intensity of a peak that corresponds to the molecular weight of the protein to the signal intensity of a peak that corresponds to the molecular weight of the protein conjugated with the compound.
The binding assay of the test compounds was conducted at a final concentration of 0.5 μM. A binding rate of 80% or more is rated “A”, a binding rate of 60% or more and less than 80% is rated “B”, a binding rate of 40% or more and less than 60% is rated “C”, a binding rate of 20% or more and less than 40% is rated “D”, and a binding rate of less than 20% is rated “E”. N.D.=not determined. Binding rate % is the ratio of KRAS signal intensity at the molecular weight of one molecule adduct to the sum of all the KRAS signal intensity (unbound form and adducts) in mass spectrum.
Thus, binding rate 100% means that only the one molecule adduct was observed without any unbound KRAS.

With `COCc1nc2cc(-c3cccc(NC(=O)c4ccc(NC(=O)/C=C/CNC5CCCCC5)c(C#N)c4)c3)c(C(F)(F)F)cc2n1C` [Example 27, (E)-3-cyano-4-(4-(cyclohexylamino)but-2-enamido)-N-(3-(2-(methoxymethyl)-1-methyl-6-(trifluoromethyl)-1H-benzo[d]imidazol-5-yl)phenyl)benzamide], in assay [1], the IC50 was 350 nM. The binding rate result in assay [2] is “B (a binding rate of 60% or more and less than 80% is rated “B”)”.
In the case of `CCc1nc2c(Cl)c(-c3cccc(NC(=O)c4ccc(NC(=O)/C=C/CN[C@H]5CC[C@H](OC)CC5)c(C#N)c4)c3)c(C(F)(F)F)cc2n1C` [Example 15, N-(3-(4-chloro-2-ethyl-1-methyl-6-(trifluoromethyl)-1H-benzo[d]imidazol-5-yl)phenyl)-3-cyano-4-((E)-4-(((1r,4r)-4-methoxycyclohexyl)amino)but-2-enamido)benzamide], the half-maximal inhibitory concentration (IC50) in assay [1] worked out at 200 nM. For the same compound, the binding rate entry in assay [2] is recorded as “A (A binding rate of 80% or more is rated “A”)”.
The matching figures for `CO[C@H]1CC[C@H](NC/C=C/C(=O)Nc2ccc(C(=O)c3ccc4c(-c5cc6nn(C)cc6cc5C)cccn34)cc2C#N)CC1` [Example 75, (E)-N-(2-cyano-4-(8-(2,5-dimethyl-2H-indazol-6-yl)indolizine-3-carbonyl)phenyl)-4-(((1r,4r)-4-methoxycyclohexyl)amino)but-2-enamide]: 150 nM and “A (A binding rate of 80% or more is rated “A”)”.
The matching figures for `CO[C@H]1CC[C@H](NC/C=C/C(=O)Nc2ccc(C(=O)c3ccc4c(-c5c(O)cccc5F)cccn34)cc2C#N)CC1` [Example 46, (E)-N-(2-cyano-4-(8-(2-fluoro-6-hydroxyphenyl)indolizine-3-carbonyl)phenyl)-4-(((1r,4r)-4-methoxycyclohexyl)amino)but-2-enamide]: 170 nM and “A (A binding rate of 80% or more is rated “A”)”.
Regarding `CO[C@H]1CC[C@H](NC/C=C/C(=O)Nc2ccc(C(=O)c3ccc4c(-c5cc6ncn(C)c6cc5C(F)(F)F)cccn34)cc2)CC1` [Example 39, (E)-4-(((1r,4r)-4-methoxycyclohexyl)amino)-N-(4-(8-(1-methyl-6-(trifluoromethyl)-1H-benzo[d]imidazol-5-yl)indolizine-3-carbonyl)phenyl)but-2-enamide], the IC50 in assay [1] was 300 nM. For the same compound, the binding rate entry in assay [2] is given as “A (A binding rate of 80% or more is rated “A”)”.
The matching figures for `CO[C@H]1CC[C@H](NC/C=C/C(=O)Nc2ccc(C(=O)c3ccc4c(-c5cc6cn(C)nc6cc5C)cccn34)cc2C#N)CC1` [Example 76, (E)-N-(2-cyano-4-(8-(2,6-dimethyl-2H-indazol-5-yl)indolizine-3-carbonyl)phenyl)-4-(((1r,4r)-4-methoxycyclohexyl)amino)but-2-enamide]: 130 nM and “A (A binding rate of 80% or more is rated “A”)”.
For the compound `Cn1cnc2cc(-c3cccn4c(C(=O)c5ccc(NC(=O)/C=C/CNC(C)(C)C)c(Cl)c5)ccc34)c(C(F)(F)F)cc21` [Example 77, (E)-4-(tert-butylamino)-N-(2-chloro-4-(8-(1-methyl-6-(trifluoromethyl)-1H-benzo[d]imidazol-5-yl)indolizine-3-carbonyl)phenyl)but-2-enamide], in assay [1], the IC50 worked out at 330 nM. Also, in assay [2], the binding rate result was “C (a binding rate of 40% or more and less than 60% is rated “C”)”.
Take `CCN(CC)[C@H]1CC[C@H](NC/C=C/C(=O)Nc2ccc(C(=O)Nc3cccc(-c4cc5ncn(C)c5cc4Cl)c3)cc2C#N)CC1` [Example 19, N-(3-(6-chloro-1-methyl-1H-benzo[d]imidazol-5-yl)phenyl)-3-cyano-4-((E)-4-(((1r,4r)-4-(diethylamino)cyclohexyl)amino)but-2-enamido)benzamide]: the IC50 in assay [1] came to 34 nM. In addition, the binding rate result in assay [2] was “A (A binding rate of 80% or more is rated “A”)”.
The matching figures for `CO[C@H]1CC[C@H](NC/C=C/C(=O)Nc2ccc(C(=O)c3c[nH]c4c(-c5cc6ncn(C)c6cc5C(F)(F)F)cc(Cl)cc34)cc2C#N)CC1` [Example 47, (E)-N-(4-(5-chloro-7-(1-methyl-6-(trifluoromethyl)-1H-benzo[d]imidazol-5-yl)-1H-indole-3-carbonyl)-2-cyanophenyl)-4-(((1r,4r)-4-methoxycyclohexyl)amino)but-2-enamide]: 560 nM and “A (A binding rate of 80% or more is rated “A”)”.
The matching figures for `COCc1nc2cc(-c3cccc(NC(=O)c4ccc(NC(=O)/C=C/CN[C@H]5CC[C@H](OC)CC5)c(C#N)c4)c3)c(C(F)(F)F)cc2n1C` [Example 21, 3-cyano-4-((E)-4-(((1r,4r)-4-methoxycyclohexyl)amino)but-2-enamido)-N-(3-(2-(methoxymethyl)-1-methyl-6-(trifluoromethyl)-1H-benzo[d]imidazol-5-yl)phenyl)benzamide]: 220 nM and “A (A binding rate of 80% or more is rated “A”)”.
On to `CO[C@H]1CC[C@H](NC/C=C/C(=O)Nc2ccc(C(=O)Nc3cccc(-c4cc5ncsc5cc4C)c3)cc2C#N)CC1` [Example 16, 3-cyano-4-((E)-4-(((1r,4r)-4-methoxycyclohexyl)amino)but-2-enamido)-N-(3-(6-methylbenzo[d]thiazol-5-yl)phenyl)benzamide], for which, in assay [1], the IC50 worked out at 700 nM. For the same compound, the binding rate entry in assay [2] was “C (a binding rate of 40% or more and less than 60% is rated “C”)”.
Turning to `CO[C@H]1CC[C@H](NC/C=C/C(=O)NC2CCN(C(=O)c3ccc4c(-c5cc6ncn(C)c6cc5C)cccn34)CC2)CC1` [Example 48, (2E)-N-{1-[8-(1,6-dimethyl-1H-1,3-benzodiazol-5-yl)indolizine-3-carbonyl]piperidin-4-yl}-4-{[trans-4-methoxycyclohexyl]amino}but-2-enamide], in assay [1], the IC50 is greater than 6700 nM. The binding rate result in assay [2] is “E (a binding rate of less than 20% is rated “E”)”.
On to `CO[C@H]1CC[C@H](NC/C=C/C(=O)Nc2ccc(C(=O)c3ccc4c(-c5ccc6nn(C)cc6c5Cl)cccn34)cc2C#N)CC1` [Example 71, (E)-N-(4-(8-(4-chloro-2-methyl-2H-indazol-5-yl)indolizine-3-carbonyl)-2-cyanophenyl)-4-(((1r,4r)-4-methoxycyclohexyl)amino)but-2-enamide], for which the IC50 in assay [1] is 140 nM. Besides, in assay [2], the binding rate entry is on record as “A (A binding rate of 80% or more is rated “A”)”.

(Values after US12673041B2, “4-aminobut-2-enamide derivatives and salt thereof” (TAIHO PHARMACEUTICAL CO., LTD., priority 2019, dated 2026).)
